Drawing on patent US12528812B2 (Genentech, Inc., priority 2020, dated 2026), this text covers Ki and IC50 for 16 compounds.

Structures are written as SMILES. Where two headings read alike, the source gives them in different places.

The target of experiment [1] is T1, recombinant human JAK1 kinase domain protein (Residues 854-1154) (Homo sapiens, UniProt P23458).
T1 construct: human JAK1 kinase domain protein (Residues 854-1154); purchased Proteros Biostructures GmbH (Martinsried, Germany); host or cells: insect cells
In words: JAK1 biochemical assay (LabChip mobility shift, Ki). Conditions: read-out: Biochem JAK1 Ki.

The target of experiment [2] is Recombinant human JAK2 kinase domain protein (Residues 812-1132) (Homo sapiens, UniProt O60674). In words: JAK2 biochemical assay (LabChip mobility shift, Ki). As to conditions: Biochem JAK2 Ki.
Experiment [3] concerns IL-13-stimulated STAT6 phosphorylation in human lung bronchial epithelial BEAS-2B cell line. As to the kind of experiment: P-STAT6 BEAS-2B + IL-13 cell assay. The format is cell-based. Conditions: BEAS2B cells, IL13 stimulation, read-out: Cellular JAK1 PSTAT6 BEAS2B + IL13. The procedure: In order to study the effect of JAK1 inhibitors in a cell line that is relevant to the cell biology of human asthma, an IL-13-stimulated STAT6 phosphorylation assay in the human lung bronchial epithelial BEAS-2B cell line was developed.
BEAS-2B cells (ATCC′ CRL-9609™) were grown in Bronchial Epithelial Growth Medium (BEGM) (Lonza Catalog No. CC-3170; Walkersville, MD; or PromoCell Catalog No. C-21060; Heidelberg, Germany). Test compound stock solutions (0.5 mM in DMSO) were serially diluted 1:2 in DMSO to generate a 10-point concentration curve (at 500× test concentration), which was further diluted by a 50-fold dilution step in BEGM to generate a 10× concentration curve (in 2% DMSO). Cells were plated at 100,000 cells/well in 200 μL of BEGM in 96-well plates and incubated for 48 hours at 37° C. in a humidified incubator. Medium was aspirated from the cells and replaced with 70 μL of fresh BEGM. Diluted test compound (10 μL; or 2% DMSO in assay medium) was added to the cells, and the plates were incubated for 1 hour at 37° C. in a humidified incubator. Twenty μL of 250 ng/mL human recombinant IL-13 (Bio Techne Catalog No. 213-ILB) was then added to the cells and incubated for 15 minutes at 37° C. Medium was aspirated from the cells and 60 μL of ice-cold 1× cell lysis buffer (Cell Signaling Technologies; Catalog No. 9803S) containing 1 mM PMSF was added to the cells. Assay plates were incubated at −80° C. for at least 1 hour. P-STAT6 was measured by coating GAR plates (MSD; Catalog No. L45RA-1) with rabbit anti-human total STAT6 antibody (Cell Signaling Technologies; Catalog No. 9362S), incubating the cell lysates in the coated plates overnight at 4° C., and then detecting with mouse anti-phospho-STAT6 (Tyr641) Clone 16E12 antibody (Millipore; Catalog No. 05-590, custom labeled by MSD with SULFO-tag) using standard MSD plate processing, washing, and detection protocols. Plates were read on the MESO SECTOR 5600.
Data analysis was performed by subtracting negative control values from all wells and determining percent of control using the positive control values; the IC50 was determined with a four-parameter logistic fit model as shown in Equation 4.

T1 sequence (P23458 854-1154): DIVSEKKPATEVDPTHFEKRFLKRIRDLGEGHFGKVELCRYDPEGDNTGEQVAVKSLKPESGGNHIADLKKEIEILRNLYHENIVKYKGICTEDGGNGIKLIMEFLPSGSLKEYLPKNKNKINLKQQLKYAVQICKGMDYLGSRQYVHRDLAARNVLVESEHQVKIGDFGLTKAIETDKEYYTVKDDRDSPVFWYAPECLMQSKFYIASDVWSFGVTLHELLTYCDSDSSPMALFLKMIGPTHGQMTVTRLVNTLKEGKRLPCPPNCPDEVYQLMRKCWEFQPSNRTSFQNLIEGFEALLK
Recombinant human JAK2 kinase domain protein (Residues 812-1132), sequence (O60674 812-1132): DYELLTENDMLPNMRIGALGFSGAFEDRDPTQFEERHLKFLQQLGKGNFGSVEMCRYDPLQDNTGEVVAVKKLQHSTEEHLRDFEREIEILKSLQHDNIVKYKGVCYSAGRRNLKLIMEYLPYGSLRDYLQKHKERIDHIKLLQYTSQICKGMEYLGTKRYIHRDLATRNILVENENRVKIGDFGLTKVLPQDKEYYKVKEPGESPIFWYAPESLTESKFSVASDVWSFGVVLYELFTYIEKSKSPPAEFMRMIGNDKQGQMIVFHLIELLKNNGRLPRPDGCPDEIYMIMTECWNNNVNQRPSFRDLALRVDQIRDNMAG

For `Cn1cc(NC(=O)c2cnn3cccnc23)c(-c2cc(Oc3cnn(C4CCNC4)c3)ccc2OC(F)F)n1` (racemic) [Example 139, N-[3-[2-(difluoromethoxy)-5-[1-[rac-(3R)-pyrrolidin-3-yl]pyrazol-4-yl]oxy-phenyl]-1-methyl-pyrazol-4-yl]pyrazolo[1,5-a]pyrimidine-3-carboxamide], the Ki (in general, the dissociation constant of the complex between target and ligand, obtained from inhibition or displacement) in experiment [1] worked out at 2 nM; in experiment [2], 1.5 nM. Moreover, in experiment [3] (Homo sapiens, BEAS-2B), the IC50 stood at 70 nM.
For the compound `CN1CCC(n2cc(Oc3ccc(OC(F)F)c(-c4nn(C)cc4NC(=O)c4cnn5cccnc45)c3)cn2)C1` (racemic) [Example 140, N-[3-[2-(difluoromethoxy)-5-[1-[rac-(3S)-1-methylpyrrolidin-3-yl]pyrazol-4-yl]oxy-phenyl]-1-methyl-pyrazol-4-yl]pyrazolo[1,5-a]pyrimidine-3-carboxamide], the Ki is 2.6 nM in experiment [1] and 1.9 nM in experiment [2]. In addition, in experiment [3] (Homo sapiens, BEAS-2B), the IC50 was found to be 44 nM.
The corresponding values for `Cn1cc(NC(=O)c2cnn3cccnc23)c(-c2cc(Oc3cnn([C@H]4CCNC4)c3)ccc2OC(F)F)n1` (racemic) [Example 144, N-[3-[2-(difluoromethoxy)-5-[1-[rac-(3S)-pyrrolidin-3-yl]pyrazol-4-yl]oxy-phenyl]-1-methyl-pyrazol-4-yl]pyrazolo[1,5-a]pyrimidine-3-carboxamide] are 3.9 nM, 3.7 nM and 160 nM.
As for `Cn1cc(NC(=O)c2cnn3cccnc23)c(-c2cc(Oc3ccc(CN4CCC[C@H](CO)C4)cc3)ccc2OC(F)F)n1` (racemic) [Example 162, 3-[2-(difluoromethoxy)-5-[4-[[rac-(3S)-3-(hydroxymethyl)-1-piperidyl]methyl]phenoxy]phenyl]-1-methyl-pyrazol-4-yl]pyrazolo[1,5-a]pyrimidine-3-carboxamide], the Ki in experiment [1] came to 2.6 nM; in experiment [2], 0.76 nM. Also, the IC50 in experiment [3] (Homo sapiens, BEAS-2B) worked out at 32 nM.
The corresponding values for `Cn1cc(NC(=O)c2cnn3cccnc23)c(-c2cc(Oc3ccc(CN4CCC[C@@H](O)C4)cc3)ccc2OC(F)F)n1` (racemic) [Example 163, N-[3-[2-(difluoromethoxy)-5-[4-[[rac-(3R)-3-hydroxy-1-piperidyl]methyl]phenoxy]phenyl]-1-methyl-pyrazol-4-yl]pyrazolo[1,5-a]pyrimidine-3-carboxamide] are 1.5 nM, 0.37 nM and 21 nM.
The corresponding values for `Cn1cc(NC(=O)c2cnn3cccnc23)c(-c2cc(Oc3ccc(CN4CCCC(O)C4)cc3)ccc2OC(F)F)n1` (racemic) [Example 164, N-[3-[2-(difluoromethoxy)-5-[4-[[rac-(3S)-3-hydroxy-1-piperidyl]methyl]phenoxy]phenyl]-1-methyl-pyrazol-4-yl]pyrazolo[1,5-a]pyrimidine-3-carboxamide] are 3.2 nM, 1.5 nM and 38 nM.
As to `Cn1cc(NC(=O)c2cnn3cccnc23)c(-c2cc(Oc3ccc(CN4CCCC4CO)cc3)ccc2OC(F)F)n1` (racemic) [Example 165, N-[3-[2-(difluoromethoxy)-5-[4-[[rac-(2S)-2-(hydroxymethyl)pyrrolidin-1-yl]methyl]phenoxy]phenyl]-1-methyl-pyrazol-4-yl]pyrazolo[1,5-a]pyrimidine-3-carboxamide], the Ki in experiment [1] is 1.7 nM; in experiment [2], 0.56 nM. Besides, the IC50 in experiment [3] (Homo sapiens, BEAS-2B) worked out at 31 nM.
As to `Cn1cc(NC(=O)c2cnn3cccnc23)c(-c2cc(Oc3ccc(CN4CCCC[C@@H]4CO)cc3)ccc2OC(F)F)n1` (racemic) [Example 166, N-[3-[2-(difluoromethoxy)-5-[4-[[rac-(2R)-2-(hydroxymethyl)-1-piperidyl]methyl]phenoxy]phenyl]-1-methyl-pyrazol-4-yl]pyrazolo[1,5-a]pyrimidine-3-carboxamide], the inhibitory constant (Ki) in experiment [1] worked out at 2.5 nM; in experiment [2], 0.99 nM. Besides, in experiment [3] (Homo sapiens, BEAS-2B), the IC50 stood at 32 nM.
The matching figures for `Cn1cc(NC(=O)c2cnn3cccnc23)c(-c2cc(Oc3ccc(CN4CCCCC4CO)cc3)ccc2OC(F)F)n1` (racemic) [Example 167, N-[3-[2-(difluoromethoxy)-5-[4-[[rac-(2S)-2-(hydroxymethyl)-1-piperidyl]methyl]phenoxy]phenyl]-1-methyl-pyrazol-4-yl]pyrazolo[1,5-a]pyrimidine-3-carboxamide]: 1.9 nM, 0.34 nM and 26 nM.
`Cn1cc(NC(=O)c2cnn3cccnc23)c(-c2cc(Oc3ccc(CN4CCC4CO)cc3)ccc2OC(F)F)n1` (racemic) [Example 168, N-[3-[2-(difluoromethoxy)-5-[4-[[rac-(2S)-2-(hydroxymethyl)azetidin-1-yl]methyl]phenoxy]phenyl]-1-methyl-pyrazol-4-yl]pyrazolo[1,5-a]pyrimidine-3-carboxamide]: the inhibitory constant (Ki) in experiment [1] stood at 1.3 nM; in experiment [2], 0.58 nM. Also, the IC50 in experiment [3] (Homo sapiens, BEAS-2B) is 30 nM.
Consider `Cn1cc(NC(=O)c2cnn3cccnc23)c(-c2cc(Oc3ccc(CN4CCC4CO)cc3)ccc2OC(F)F)n1` (racemic) [Example 169, N-[3-[2-(difluoromethoxy)-5-[4-[[rac-(2R)-2-(hydroxymethyl)azetidin-1-yl]methyl]phenoxy]phenyl]-1-methyl-pyrazol-4-yl]pyrazolo[1,5-a]pyrimidine-3-carboxamide], for which the values for the inhibition constant Ki in experiment [1] and in experiment [2] were 1.2 nM and 0.68 nM, respectively. For the same compound, the IC50 in experiment [3] came out at 29 nM.
Turning to `Cn1cc(NC(=O)c2cnn3cccnc23)c(-c2cc(Oc3ccc(CN4CCC(CO)C4)cc3)ccc2OC(F)F)n1` (racemic) [Example 170, N-[3-[2-(difluoromethoxy)-5-[4-[[rac-(3S)-3-(hydroxymethyl)pyrrolidin-1-yl]methyl]phenoxy]phenyl]-1-methyl-pyrazol-4-yl]pyrazolo[1,5-a]pyrimidine-3-carboxamide], the Ki in experiment [1] came out at 4.1 nM; in experiment [2], 1.9 nM. In experiment [3] (Homo sapiens, BEAS-2B), the IC50 came to 76 nM.
As to `Cn1cc(NC(=O)c2cnn3cccnc23)c(-c2cc(Oc3ccc(CN4CCC[C@@H]4CO)cc3)ccc2OC(F)F)n1` (racemic) [Example 171, N-[3-[2-(difluoromethoxy)-5-[4-[[rac-(2R)-2-(hydroxymethyl)pyrrolidin-1-yl]methyl]phenoxy]phenyl]-1-methyl-pyrazol-4-yl]pyrazolo[1,5-a]pyrimidine-3-carboxamide], the inhibition constant (Ki) was determined as 1.9 nM in experiment [1] and 0.95 nM in experiment [2]. Moreover, in experiment [3] (Homo sapiens, BEAS-2B), the IC50 stood at 50 nM.
The matching figures for `Cn1cc(NC(=O)c2cnn3cccnc23)c(-c2cc(Oc3ccc(CN4CC[C@@H](CO)C4)cc3)ccc2OC(F)F)n1` (racemic) [Example 172, N-[3-[2-(difluoromethoxy)-5-[4-[[rac-(3R)-3-(hydroxymethyl)pyrrolidin-1-yl]methyl]phenoxy]phenyl]-l-methyl-pyrazol-4-yl]pyrazolo[1,5-a]pyrimidine-3-carboxamide]: 6.2 nM, 1.4 nM and 150 nM.
The matching figures for `CN(C)[C@H]1CCN(C(=O)c2cccc(Oc3ccc(OC(F)F)c(-c4nn(C)cc4NC(=O)c4cnn5cccnc45)c3)c2)C1` (racemic) [Example 210, N-[3-[2-(difluoromethoxy)-5-[3-[rac-(3R)-3-(dimethylamino)pyrrolidine-1-carbonyl]phenoxy]phenyl]-1-methyl-pyrazol-4-yl]pyrazolo[1,5-a]pyrimidine-3-carboxamide]: 1.1 nM, 0.95 nM and 50 nM.
The matching figures for `CN(C)C1CCN(C(=O)c2cccc(Oc3ccc(OC(F)F)c(-c4nn(C)cc4NC(=O)c4cnn5cccnc45)c3)c2)C1` (racemic) [Example 211, N-[3-[2-(difluoromethoxy)-5-[3-[rac-(3S)-3-(dimethylamino)pyrrolidine-1-carbonyl]phenoxy]phenyl]-1-methyl-pyrazol-4-yl]pyrazolo[1,5-a]pyrimidine-3-carboxamide]: 0.98 nM, 0.58 nM and 54 nM.
